For this experiment, the target named is T1, Dual specificity mitogen-activated protein kinase kinase 7 (Homo sapiens, UniProt O14733).
T1 sequence (O14733 whole entry): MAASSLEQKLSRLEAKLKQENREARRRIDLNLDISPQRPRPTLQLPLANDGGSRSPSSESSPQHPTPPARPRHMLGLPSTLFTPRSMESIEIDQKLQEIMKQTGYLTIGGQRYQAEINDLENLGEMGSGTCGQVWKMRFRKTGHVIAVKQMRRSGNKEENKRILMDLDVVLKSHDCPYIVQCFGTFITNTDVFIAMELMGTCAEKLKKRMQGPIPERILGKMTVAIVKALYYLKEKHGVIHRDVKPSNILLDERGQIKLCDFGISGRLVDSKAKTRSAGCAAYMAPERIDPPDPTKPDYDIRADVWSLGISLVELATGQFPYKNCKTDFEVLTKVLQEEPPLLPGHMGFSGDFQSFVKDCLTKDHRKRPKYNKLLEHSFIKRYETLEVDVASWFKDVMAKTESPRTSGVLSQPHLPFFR
As to the kind of experiment: Inhibition of MAP2K7 (unknown origin) using JNK peptide KFMMTPYVVTR incubated for 30 mins measured by multimode reader based ADP-glo assay. Background: ADP-Glo turns the ADP formed in a reaction into a luminescent signal.

A word on the IC50: it is the concentration that gives 50% inhibition. A higher IC50 goes with a need for much substance.

For `C#CCNC(=O)c1cc(NC(=O)C=C)cc(-c2n[nH]c3ccccc23)c1`, the IC50 stood at 6.5 nM.

Values taken from ChEMBL document CHEMBL4699503, “Structural basis for producing selective MAP2K7 inhibitors” (Bioorg Med Chem Lett, 2020).
